Experimental data from patent publication US11622964B2, “Method for destroying cellular mechanical homeostasis and promoting regeneration and repair of tissues and organs, and use thereof” (INSTITUTE OF ZOOLOGY, CHINESE ACADEMY OF SCIENCES, priority 2018, dated 2023).
Blank lines part the entries; values can stand above or below the compound they belong to.

Columns and labels:
adult hepatocytes = assay: In vitro amplification of adult hepatocytes; type: cell-based, human; conditions: for number of cells: after 6 days of culture
Procedure: Resuscitation and Culture of Adult Hepatocytes: adult hepatocytes ([…] […] human, Bioreclamation IVT) are taken out from the liquid nitrogen tank, quickly placing in a 37° C. water bath, after melting the cells are added to 5 ml of 37° C. pre-warmed hepatocyte inoculation medium (In VitroGRO CP Medium), then inoculating at 9×10^4/well in 24-well plate after counting, 2-4 hours after hepatocyte adherence, the hepatocyte inoculation medium is sucked and discarded, then respectively adding control medium for hepatocyte culture, 10 μm small molecule medium, and 20 μm small molecule medium; changing the medium every 2 days. The number of cells is estimated from the photograph on day 2. After 4 days, the 20 μm small molecule medium group is changed to culture the cells in 10 μm small molecule medium. After co-culturing for 6 days the cells are counted. A portion of the cells are taken for RNA extraction so as to detect the expression of human hepatocyte-specific genes. Passage of Adult Hepatocytes: 4.7×10^4 hepatocytes cultured in the above control group, and 8×10^4 hepatocytes cultured in 10 μm small molecule medium are respectively re-inoculated into 24-well plate coated with rat tail collagen, changing the medium every two days and culturing for 6 days, photographs are taken to record the growth of the cells. Induction of CYP1A2 in Adult Hepatocytes Amplified by Small Molecule Medium: 3×10^5 hepatocytes are inoculated in 24-well plate coated with rat tail collagen, after culturing in 10 μm small molecule medium for 24 hours, the medium is replaced with 10 μm small molecule medium containing 50 μm omeprazole, and in the control group the cells are cultured in 10 μm small molecule medium containing DMSO; 48 hours later, the cells are collected to detect the expression of the CYP1A2 gene.

[1] = test system: mouse embryonic fibroblasts (MEFs); assay: TGF-β1-induced transformation of mouse embryonic fibroblasts into myofibroblasts; type: cell-based; conditions: S-Bleb-OB 20 μM; for stretched state / fibrous morphology of MEFs: compared with DMSO; for TGF-β1-induced myofibroblast activation: scheme as Example 9-1
From the text: In this example, cell models for in vitro fibrosis are respectively built to activate mouse hepatic stellate Cells (mHSCs, FIG. 13(B)), mouse embryonic fibroblasts (MEFs FIG. 13(C)), mouse adult liver, lung, and heart-derived primary mesenchymal cells (priMCs, FIG. 13(D)), and human hepatic stellate cells (hLX-2, FIG. 13(E)) into myofibroblasts through the induction of TGF-β1. The specific experimental procedure is as shown in FIG. 9A: a medium containing 10% serum is used for the initial cell culture; after 24 hours the medium is replaced with low serum medium (or pre-starvation treatment for 16 hours) while adding 3 ng/ml TGF-β1 with DMSO or Bleb (20 μM); after 7 days the expression of myofibroblast activation marker protein (Acta2), collagen (Col1a1, Col1a2, Col3a1, and Col1a2), and matrix metalloproteinases and inhibitors (collagenases: MmP8, and MmP13; gelatinases: MmP2, and MmP9; a metalloproteinase inhibitor: Timp1/2/3) are identified.

amplification effect on adult hepatocytes (cell number day 6 / day 2) (adult hepatocytes): significant amplification effect | expression of human hepatocyte specific genes ALBUMIN, AFP, CYP1A2, CYP3A4 (adult hepatocytes): still express | subculture of human hepatocytes (adult hepatocytes): can subculture human hepatocytes
Compound: (−)-blebbistatin
number of cells (adult hepatocytes; 10 μm group): 6.47×10^4 (SD=1.24) | number of cells (adult hepatocytes; # group (20 μm for 4 days, then 10 μm for 2 days)): 9.47×10^4 (SD=0.98) | expression of proliferating cell nuclear antigen (PCNA) gene (adult hepatocytes; vs control group): significantly higher

expression of CYP1A2 gene after induction (adult hepatocytes; 50 μm omeprazole, 48 hours, subcultured adult hepatocytes in 10 μm small molecule medium): increase
Compound: COc1ccc2[nH]c([S+]([O-])Cc3ncc(C)c(OC)c3C)nc2c1 (stereo not drawn) [omeprazole]

Compound: Cc1ccc2c(c1)C(=O)[C@]1(OC(=O)c3ccccc3)CCN(c3ccccc3)C1=N2 [S-Bleb-OB, (−)-blebbistatin o-benzoate]
stretched state / fibrous morphology of MEFs [1]: may destroy the stretched state | TGF-β1-induced myofibroblast activation [1]: capable of inhibiting

Compound: Cc1ccc2c(c1)C(=O)[C@@]1(O)CCN(c3ccccc3)C1=N2 [R-Bleb, (R)-(+)-blebbistatin]
stretched state / fibrous morphology of MEFs [1]: does not affect the fibrous morphology | TGF-β1-induced myofibroblast activation [1]: no inhibitory effect

Compound: (−)-blebbistatin o-benzoate [S-Bleb-OB]
TGF-β1-induced myofibroblast activation [1]: have an inhibitory effect
